Laboratory results: patent publication US20030022856A1, “Method for sustained release local delivery of drugs for ablation of unwanted tissue” (The Regents Of The University of Michigan, priority 2001, published 2003)

Test system: organ cultured adipose tissue (epididymal fat tissue)
Experiment: Adipose organ culture apoptosis assay (Bax immunostaining)
Format: cell-based, rat
Conditions: seven days incubation, 1 μg TNF-α
Method: Epididymal fat tissue was excised and cut into pieces (1 cm^3), and cultured. Briefly, tissue was placed in Dulbecco's Modified Eagle Medium containing 10% fetal bovine serum and penicillin/streptomycin, and incubated at 37° C. Samples (n=3) were injected with PBS, TNF-α protein (1 μg), blank microspheres, or microspheres containing TNF-α (total 1 μg TNF-α) and incubated at 37° C. After 3 or 7 days, the tissue was rinsed 1× with PBS, placed in 3.7% formaldehyde overnight and stored in 70% ethanol prior to sectioning for histology.
Tissue samples were bisected and subjected to butyl processing and paraffinization by standard procedures, at the histology core facility at the University of Michigan School of Dentistry. This process removes all lipids droplets from the tissue, enabling reproducible and rapid staining. […] Samples were counterstained with hematoxylin, imaged using a Nikon Eclipse E800, and Bax positive and negative cells were counted manually from at least 10 randomly chosen fields. Data were subjected to statistical analysis to determine the significance of the difference (P<0.05) among the measured population proportions of Bax positive cells, using a binomial equation. […]

tumor necrosis factor-alpha [TNF-α protein]
Bax staining of adipose tissue: high levels of staining
percentage of Bax positive cells (apoptotic cells) (1 cm^3 explanted tissue): 54%
